Measurements as given in patent US8598173B2, “1-[(6,7-substituted alkoxyquinoxalinyl)aminocarbonyl]-4-(hetero)arylpiperazine derivatives for treating tumors” (Korea Research Institute of Chemical Technology, priority 2004, dated 2013).
Read-outs that look alike come from different tables or passages of the source.

Columns and labels:
Assay type in all cases: cell-based, human
Details in all cases: SRB method, 96 hours incubation
[1] = test system: MDA-MB-231 (breast); assay: Cell growth inhibition assay (SRB), MDA-MB-231
Experimental: (§1) OVCAR-3, MCF-7, PC3, HepG2, A549, HT-29 and MKN-45 were grown in RPMI1640 medium (Invitrogen, Carlsbad, Calif.) supplemented with 10% fetal bovine serum (‘FBS’), 1 mM sodium pyruvate, 10 mM HEPES and 100 U/ml penicillin and […] streptomycin (‘P/S’). MDA-MB-231, HCT116, UMRC2, Caki-1, PANC-1 and HEK293 cells were maintained in Dulbecco's modified Eagle's medium (‘DMEM’, Invitrogen) supplemented with 10% FBS, P/S, 10 mM HEPES and 2 mM L-glutamine. HUVEC was maintained in M199 supplemented with basic fibroblast growth factor (‘bFGF’) […] and FBS 20%. All cells were incubated at 37° C. under humidified 5% CO2.
(§2) The growth inhibition of the substituted quinoxalin-piperazine compounds against a variety of human tumor cells was evaluated. The relative importance of particular substituent groups on the compounds was also studied. The substituted piperazine derivative compounds, prepared as described above, were tested, along with DMSO as a control.
(§3) The growth inhibition assay of various compounds against human tumor cell lines was performed using the Sulforhodamine B (‘SRB’) method (Skehan et al., J. National Cancer Institute, 1990, 82, 1107-1112). […] Triplicate wells were used for each treatment. The cells were incubated with the various compounds for 96 hours at 37° C. in a humidified 5% CO2 atmosphere. After 96-hour incubation, cells were fixed with 10% trichloroacetic acid (‘TCA’), incubated for 1 hour at 4° C., and washed 3 times with tap water. Subsequently cells were stained with 0.4% sulforhodamine B in 1% acetic acid for 30 minutes, washed 4 times with 1% acetic acid, and air-dried again. After 5 minutes agitation in 10 mM Tris solution, the absorbance of each well was measured at 530 nm using Benchmark Plus Microplate reader (Bio-Rad Laboratories, Hercules, Calif.).
(§4) To translate the OD530 values into the number of live cells in each well, the OD530 values were compared to those on standard OD530-versus-cell number curves generated for each cell line. The percent survival was calculated using the formula: % Survival=live cell number[test]/live cell number[control]×100
(§5) The IC50 values were calculated by non-linear regression analysis.

[2] = test system: UMRC2 (kidney); assay: Cell growth inhibition assay (SRB), UMRC2
Experimental: as §1, §2, §3, §4, §5

[3] = test system: PANC-1 (pancreas); assay: Cell growth inhibition assay (SRB), PANC-1
Experimental: as §1, §2, §3, §4, §5

[4] = Homo sapiens, MDA-MB-231, read-out: Inhibition of cell growth (IC50, μM) by quinoxaline-piperazine compounds against human cancer cell lines: MDA-MB-231
[5] = Homo sapiens, UMRC2, read-out: Inhibition of cell growth (IC50, μM) by quinoxaline-piperazine compounds against human cancer cell lines: UMRC2
[6] = Homo sapiens, PANC-1, read-out: Inhibition of cell growth (IC50, μM) by quinoxaline-piperazine compounds against human cancer cell lines: PANC-1
[7] = Homo sapiens, MDA-MB-231 (breast), read-out: IC50, MDA-MB-231
[8] = Homo sapiens, UMRC2 (kidney), read-out: IC50, UMRC2
[9] = Homo sapiens, PANC-1 (pancreas), read-out: IC50, PANC-1
[10] = MDA-MB-231 (breast), read-out: IC50, MDA-MB-231
[11] = UMRC2 (kidney), read-out: IC50, UMRC2
[12] = PANC-1 (pancreas), read-out: IC50, PANC-1
[13] = MDA-MB-231, read-out: Inhibition of cell growth (IC50, μM) by quinoxaline-piperazine compounds against human cancer cell lines: MDA-MB-231
[14] = UMRC2, read-out: Inhibition of cell growth (IC50, μM) by quinoxaline-piperazine compounds against human cancer cell lines: UMRC2
[15] = PANC-1, read-out: Inhibition of cell growth (IC50, μM) by quinoxaline-piperazine compounds against human cancer cell lines: PANC-1

IC50 [1, 4] | IC50 [3, 6] | IC50 [1, 7] | IC50 [3, 9] | SMILES | IC50 [2, 5] | IC50 [2, 8] | also measured
> 1 µM | > 1 µM | – | – | COc1ccc2nc(OC)c(NC(=O)N3CCN(c4cccc(Cl)c4)CC3)nc2c1 [Compound 78, 1-[(2,6-Dimethoxyquinoxalin-3-yl)aminocarbonyl]-4-(3-chlorophenyl)piperazine] | > 1 µM | – | –
0.17 µM | 0.93 µM | – | – | COc1nc2ccc(Cl)cc2nc1NC(=O)N1CCN(c2cccc(Cl)c2)CC1 [Compound 36, 1-[(6-Chloro-2-methoxyquinoxalin-3-yl)aminocarbonyl]-4-(3-chlorophenyl)piperazine] | 0.31 µM | – | –
– | – | 0.7 µM | 1 µM | COc1nc2cc(F)c(F)cc2nc1NC(=O)N1CCN(c2cc(C)cc(C)c2)CC1 [Compound 172, 1-[(6,7-Difluoro-2-methoxyquinoxalin-3-yl)aminocarbonyl]-4-(3,5-dimethylphenyl)piperazine] | – | 0.56 µM | –
> 1 µM | > 1 µM | – | – | COc1cccc(N2CCN(C(=O)Nc3nc4cc(OC)ccc4nc3OC)CC2)c1 [Compound 66, 1-[(2,6-Dimethoxyquinoxalin-3-yl)aminocarbonyl]-4-(3-methoxyphenyl)piperazine] | > 1 µM | – | –
– | – | – | – | COc1nc2cc(F)ccc2nc1NC(=O)N1CCN(c2cccc(C(F)(F)F)c2)CC1 [Compound 95, 1-[(6-Fluoro-3-methoxyquinoxalin-2-yl)aminocarbonyl]-4-(3-trifluorotoly)piperazine] | – | – | IC50 [1, 10]: > 1 µM; IC50 [2, 11]: > 1 µM; IC50 [3, 12]: > 1 µM
– | – | 0.65 µM | 0.69 µM | COc1cc2nc(NC(=O)N3CCN(c4cc(C)cc(C)c4)CC3)c(OC)nc2cc1OC [Compound 193, 1-[(2,6,7-Trimethoxyquinoxalin-3-yl)aminocarbonyl]-4-(3,5-dimethylphenyl)piperazine] | – | 0.47 µM | –
0.41 µM | 1.66 µM | – | – | COc1cccc(N2CCN(C(=O)Nc3nc4cc(Cl)ccc4nc3OC)CC2)c1 [Compound 24, 1-[(6-Chloro-2-methoxyquinoxalin-3-yl)aminocarbonyl]-4-(3-methoxyphenyl)piperazine] | 0.68 µM | – | –
– | – | ≥ 1 µM | > 1 µM | COc1cccc(N2CCN(C(=O)Nc3nc4ccc(OC)cc4nc3OC)CC2)c1 [Compound 150, 1-[(3,6-Dimethoxyquinoxalin-2-yl)aminocarbonyl]-4-(3-methoxyphenyl)piperazine] | – | > 1 µM | –
– | – | 0.3 µM | 0.61 µM | COc1nc2cc(Cl)ccc2nc1NC(=O)N1CCN(c2cccc(C)c2)CC1 [Compound 113, 1-[(6-Chloro-3-methoxyquinoxalin-2-yl)aminocarbonyl]-4-(3-methylphenyl)piperazine] | – | 0.4 µM | –
– | – | – | – | COc1nc2ccc(Cl)cc2nc1NC(=O)N1CCN(c2cccc(C(F)(F)F)c2)CC1 [Compound 32, 1-[(6-Chloro-2-methoxyquinoxalin-3-yl)aminocarbonyl]-4-(3-trifluorotolyl)piperazine] | – | – | IC50 [1, 13]: 1 µM; IC50 [2, 14]: 1 µM; IC50 [3, 15]: > 1 µM
0.21 µM | 0.95 µM | – | – | COc1nc2cc(F)ccc2nc1NC(=O)N1CCN(c2cccc(C)c2)CC1 [Compound 92, 1-[(6-Fluoro-3-methoxyquinoxalin-2-yl)aminocarbonyl]-4-(3-methylphenyl)piperazine] | 0.37 µM | – | –
– | – | > 1 µM | > 1 µM | COc1cccc(N2CCN(C(=O)Nc3nc4ccc(C)cc4nc3OC)CC2)c1 [Compound 129, 1-[(3-Methoxy-6-methylquinoxalin-2-yl)aminocarbonyl]-4-(3-methoxyphenyl)piperazine] | – | > 1 µM | –
0.22 µM | 1.04 µM | – | – | COc1nc2ccc(C)cc2nc1NC(=O)N1CCN(c2cccc(C)c2)CC1 [Compound 50, 1-[(2-Methoxy-6-methylquinoxalin-3-yl)aminocarbonyl]-4-(3-methylphenyl)piperazine] | 0.4 µM | – | –
– | – | 0.23 µM | 0.96 µM | COc1ccc2nc(NC(=O)N3CCN(c4cccc(C)c4)CC3)c(OC)nc2c1 [Compound 155, 1-[(3,6-Dimethoxyquinoxalin-2-yl)aminocarbonyl]-4-(3-methylphenyl)piperazine] | – | 0.39 µM | –
– | – | 0.69 µM | 0.9 µM | COc1cc(OC)cc(N2CCN(C(=O)Nc3nc4cc(OC)c(OC)cc4nc3OC)CC2)c1 [Compound 191, 1-[(2,6,7-Trimethoxyquinoxalin-3-yl)aminocarbonyl]-4-(3,5-dimethoxyphenyl)piperazine] | – | 0.49 µM | –
– | – | – | – | COc1nc2ccc(F)cc2nc1NC(=O)N1CCN(c2cccc(C(F)(F)F)c2)CC1 [Compound 11, 1-[(6-Fluoro-2-methoxyquinoxalin-3-yl)aminocarbonyl]-4-(3-trifluorotolyl)piperazine] | – | – | IC50 [1, 13]: 0.25 µM; IC50 [2, 14]: 0.39 µM; IC50 [3, 15]: 1.06 µM
– | – | 1.45 µM | 1.16 µM | COc1cc(OC)cc(N2CCN(C(=O)Nc3nc4cc(Cl)c(Cl)cc4nc3OC)CC2)c1 [Compound 177, 1-[(6,7-Dichloro-2-methoxyquinoxalin-3-yl)aminocarbonyl]-4-(3,5-dimethoxyphenyl)piperazine] | – | 0.58 µM | –
– | – | > 1 µM | > 1 µM | COc1cccc(N2CCN(C(=O)Nc3nc4ccc(Cl)cc4nc3OC)CC2)c1 [Compound 108, 1-[(6-Chloro-3-methoxyquinoxalin-2-yl)aminocarbonyl]-4-(3-methoxyphenyl)piperazine] | – | > 1 µM | –
– | – | 0.26 µM | – | COc1nc2cc(C)ccc2nc1NC(=O)N1CCN(c2cccc(C)c2)CC1 [Compound 134, 1-[(3-Methoxy-6-methylquinoxalin-2-yl)aminocarbonyl]-4-(3-methylphenyl)piperazine] | – | 0.26 µM | –
0.16 µM | 0.95 µM | – | – | COc1nc2ccc(Cl)cc2nc1NC(=O)N1CCN(c2cccc(C)c2)CC1 [Compound 29, 1-[(6-Chloro-2-methoxyquinoxalin-3-yl)aminocarbonyl]-4-(3-methylphenyl)piperazine] | 0.3 µM | – | –
> 1 µM | > 1 µM | – | – | COc1cccc(N2CCN(C(=O)Nc3nc4ccc(F)cc4nc3OC)CC2)c1 [Compound 87, 1-[(6-Fluoro-3-methoxyquinoxalin-2-yl)aminocarbonyl]-4-(3-methoxyphenyl)piperazine] | > 1 µM | – | –
– | – | – | – | COc1nc2cc(Cl)ccc2nc1NC(=O)N1CCN(c2cccc(C(F)(F)F)c2)CC1 [Compound 116, 1-[(6-Chloro-3-methoxyquinoxalin-2-yl)aminocarbonyl]-4-(3-trifluorotolyl)piperazine] | – | – | IC50 [1, 10]: > 1 µM; IC50 [2, 11]: > 1 µM; IC50 [3, 12]: > 1 µM
– | – | – | – | COc1cc2nc(NC(=O)N3CCN(c4cccc(C(F)(F)F)c4)CC3)c(OC)nc2cc1OC [Compound 194, 1-[(2,6,7-Trimethoxyquinoxalin-3-yl)aminocarbonyl]-4-(3-trifluorotolyl)piperazine] | – | – | IC50 [1, 10]: 0.75 µM; IC50 [2, 11]: 0.79 µM; IC50 [3, 12]: 1.4 µM
– | – | – | – | COc1nc2ccc(C)cc2nc1NC(=O)N1CCN(c2cccc(C(F)(F)F)c2)CC1 [Compound 53, 1-[(2-Methoxy-6-methylquinoxalin-3-yl)aminocarbonyl]-4-(3-trifluorotolyl)piperazine] | – | – | IC50 [1, 13]: > 1 µM; IC50 [2, 14]: > 1 µM; IC50 [3, 15]: > 1 µM
– | – | 0.25 µM | – | COc1nc2cc(C)ccc2nc1NC(=O)N1CCN(c2cccc(Cl)c2)CC1 [Compound 141, 1-[(3-Methoxy-6-methylquinoxalin-2-yl)aminocarbonyl]-4-(3-chlorophenyl)piperazine] | – | 0.25 µM | –
